In patent US20160220689A1, “MACROMOLECULES OF DENDRIMER-PLATINUM CONJUGATES” (priority 2013, published 2016):

Legend:
2008 (ovarian) = experiment: Sulforhodamine B (SRB) cell growth inhibition assay; conditions: 72 hours, based on equivalent platinum loading, standard drugs on total molecular weight
Procedure: (§1) Cell growth inhibition was determined using the Sulforhodamine B (SRB) assay (Voigt W., “Sulforhodamine B assay and chemosensitivity” Methods Mol. Med., 2005, 110, 39-48) against various cancer cell lines after 72 hours.
(§2) All solutions were prepared in saline and were stored at −20° C. All values were based on equivalent platinum loading except standard drugs which were calculated on total molecular weight. The results are shown in Table 1 in the micromolar range.

OE21 (head and neck) = experiment: as above; conditions: 72 hours, based on equivalent platinum loading, standard drugs on total molecular weight
Procedure: as §1, §2

LoVo (colon) = experiment: as above; conditions: 72 hours, based on equivalent platinum loading, standard drugs on total molecular weight
Procedure: as §1, §2

FADU (head and neck) = experiment: as above; conditions: 72 hours, based on equivalent platinum loading, standard drugs on total molecular weight
Procedure: as §1, §2

SW620 (colon) = experiment: as above; conditions: 72 hours, based on equivalent platinum loading, standard drugs on total molecular weight
Procedure: as §1, §2

[1] = cited from earlier work
[2] = Maximum tolerated dosage in mice; conditions: intravenous, once weekly for three weeks (day 1, 8 and 15), female Balb/c mice
Source text: Mice were weighed daily and watched for signs of toxicity. Animals were monitored for up to 10 days following the final drug dose. Any mice exceeding ethical endpoints (>20% body weight loss, poor general health) were immediately sacrificed and observations were noted.

SW620 cells = experiment: Xenograft model efficacy study; conditions: IV days 1, 8, 15, Oxaliplatin 5, Compound 1 8.5, Compound 5 9 mg/kg Pt equivalents
Procedure: Thirteen days later, 50 mice with similar sized tumors (˜110 mm^3) were randomized into 4 groups (n=12). All compounds were dissolved in 5% glucose at the concentration required to achieve administration of 0.1 mL/10 g body eight.

[3] = Toxicity study: blood cell counts in tumor-bearing mice; conditions: Oxaliplatin 5, Compound 1 8.5, Compound 5 9 mg/kg Pt equivalents IV days 1, 8, 15
Procedure: The mice were randomised into 4 groups of n=5 mice, (mean tumor volume ˜90 mm^3) On day one, animals were eye bled in the morning for baseline cell counts and then drug dosing commenced later that day. Drug dosing was performed on days 1, 8 and 15 at the previously determined maximum tolerated doses. All compounds were dissolved in 5% glucose at the concentration required to allow administration of 0.1 mL/10 g body weight. […] Subsequent eye bleeds were performed on days 7, 14 and 26 (Tables 4 A-D, in each case data represented as mean ratio of counts for each time point relative to that at the baseline).

## N.N.[Cl][Pt][Cl] [Cisplatin, cisplatin, reference compound]
2008 (ovarian)
  GI50: 0.5 µM
OE21 (head and neck)
  GI50: 0.4 µM
LoVo (colon)
  GI50: 2.8 µM
FADU (head and neck)
  GI50: 2 µM
SW620 (colon)
  GI50: 3.6 µM
[1]; patients treated with the drug
  patients with tinnitus and hearing loss: up to 31%

## BHALys[Lys]32[α-Succ-Gly-Gly-Gly-amino malonic acid-N,O—Pt-1R,2R-(DACH)]32[ε-PEG1100]32 [Compound 4]
2008 (ovarian)
  GI50: 6.4 µM
OE21 (head and neck)
  GI50: 7.4 µM
LoVo (colon)
  GI50: 13 µM
FADU (head and neck)
  GI50: 9.5 µM
SW620 (colon)
  GI50: 6.7 µM

## BHALys[Lys]32[α-Succ-Gly-Gly-Gly-amino malonic acid-O,O′—Pt-diammine]32[ε-PEG2200]32 [Compound 2]
2008 (ovarian)
  GI50: 41 µM
OE21 (head and neck)
  GI50: > 30 µM
LoVo (colon)
  GI50: 170 µM
FADU (head and neck)
  GI50: 200 µM
SW620 (colon)
  GI50: > 300 µM

## BHALys[Lys]32[α-diglycolic acid-5S-oxy-(1R,2R)-diaminocyclohexane-oxalato-Platinum (II)]32[ε-PEG2200]32 [Compound 14]
[2]
  Tolerated Dose: >35 mg/Kg Pt equivalents

## oxaliplatin [reference compound]
2008 (ovarian)
  GI50: 0.2 µM
OE21 (head and neck)
  GI50: 1 µM
LoVo (colon)
  GI50: 0.5 µM
FADU (head and neck)
  GI50: 0.9 µM
SW620 (colon)
  GI50: 0.2 µM
SW620 cells; Day 1
  Mean Tumor Volume: 100.56 mm^3
SW620 cells; Day 7
  Mean Tumor Volume: 203.06 mm^3
SW620 cells; Day 14
  Mean Tumor Volume: 340.50 mm^3
SW620 cells; Day 21
  Mean Tumor Volume: 501.57 mm^3
[3]; Day 1 (baseline)
  Mean lymphocytes counts (baseline corrected) (SEM): 1.000 (0.125)
[3]; Day 7
  Mean lymphocytes counts (baseline corrected) (SEM): 0.240 (0.130)
[3]; Day 14
  Mean lymphocytes counts (baseline corrected) (SEM): 0.302 (0.066)
[3]; Day 26
  Mean lymphocytes counts (baseline corrected) (SEM): 0.380 (0.154)

## BHALys[Lys]32[α-Succ-Gly-Leu-Phe-Gly-amino malonic acid-Pt-1R,2R-(DACH)]32[ε-PEG2200]32 [Compound 5]
2008 (ovarian)
  GI50: 2.5 µM
LoVo (colon)
  GI50: 3 µM
FADU (head and neck)
  GI50: 3 µM
SW620 (colon)
  GI50: 1.5 µM
SW620 cells; Day 1
  Mean Tumor Volume: 100.96 mm^3
SW620 cells; Day 7
  Mean Tumor Volume: 196.01 mm^3
SW620 cells; Day 14
  Mean Tumor Volume: 303.00 mm^3
SW620 cells; Day 21
  Mean Tumor Volume: 363.01 mm^3

## BHALys[Lys]32[α-Succ-Gly-Gly-Gly-amino malonic acid-Pt-1R,2R-(DACH)]32[ε-PEG2200]32 [Compound 1]
2008 (ovarian)
  GI50: 4.5 µM
LoVo (colon)
  GI50: 7.5 µM
FADU (head and neck)
  GI50: 9 µM
SW620 (colon)
  GI50: 3.5 µM
SW620 cells; Day 1
  Mean Tumor Volume: 100.47 mm^3
SW620 cells; Day 7
  Mean Tumor Volume: 184.55 mm^3
SW620 cells; Day 14
  Mean Tumor Volume: 283.02 mm^3
SW620 cells; Day 21
  Mean Tumor Volume: 316.90 mm^3

## BHALys[Lys]32[α-Succ-Gly-Leu-Phe-Gly-amino malonic acid-N,O—Pt-diammine]32[ε-PEG1100]32 [Compound 7]
2008 (ovarian)
  GI50: 36 µM
OE21 (head and neck)
  GI50: > 30 µM
LoVo (colon)
  GI50: 220 µM
FADU (head and neck)
  GI50: 150 µM
SW620 (colon)
  GI50: 170 µM

## BHALys[Lys]32[α-Succ-Gly-Gly-Gly-amino malonic acid-O,N—Pt-diammine]32[ε-PEG2200]32 [Compound 3]
2008 (ovarian)
  GI50: 69 µM
LoVo (colon)
  GI50: > 300 µM
FADU (head and neck)
  GI50: > 300 µM
SW620 (colon)
  GI50: > 300 µM

## N.N.O=C([O-])C1(C(=O)[O-])CCC1.[Pt+2] [Carboplatin, carboplatin, reference compound]
2008 (ovarian)
  GI50: 4.9 µM
OE21 (head and neck)
  GI50: 3.6 µM
LoVo (colon)
  GI50: 23 µM
FADU (head and neck)
  GI50: 20 µM
SW620 (colon)
  GI50: 33.5 µM
[1]; patients receiving the drug
  patients developing peripheral neurotoxicity: 4-6%

## BHALys[Lys]32[α-thiodiglycolic acid-4-oxy-1,1-cyclohexane dicarboxylic acid —Pt-1R,2R-(DACH)]32[ε-PEG2200]32 [Compound 12]
2008 (ovarian)
  GI50: 6 µM
LoVo (colon)
  GI50: 5 µM
FADU (head and neck)
  GI50: 8.5 µM
SW620 (colon)
  GI50: 2.5 µM
[2]
  Tolerated Dose: >60 mg/Kg Pt equivalents

## BHALys[Lys]32[α-Succ-Pro-Val-Gly-Leu-Ile-Gly-amino malonic acid N,O—Pt-diamine]32[ε-PEG1100]32 [Compound 8]
2008 (ovarian)
  GI50: 18 µM
OE21 (head and neck)
  GI50: 26.5 µM
LoVo (colon)
  GI50: 72 µM
FADU (head and neck)
  GI50: 71 µM
SW620 (colon)
  GI50: 63 µM

## BHALys[Lys]32[α-Succ-Gly-Leu-Phe-Gly-amino malonic acid-N,O—Pt-1R,2R-(DACH)]32[ε-PEG1100]32 [Compound 6]
2008 (ovarian)
  GI50: 3.9 µM
OE21 (head and neck)
  GI50: 14.5 µM
LoVo (colon)
  GI50: 8.1 µM
FADU (head and neck)
  GI50: 12 µM
SW620 (colon)
  GI50: 4.2 µM

## BHALys[Lys]32[α-diglycolic acid-5R-oxy-(1R,2R)-diaminocyclohexane-oxalato-Platinum (II)]32[ε-PEG2200]32 [Compound 13]
[2]
  Tolerated Dose: >35 mg/Kg Pt equivalents
